Test results published in patent US20200038412A1, “METHODS OF TREATING ALZHEIMER'S DISEASE USING AMINOSTEROL COMPOSITIONS” (Enterin, Inc., priority 2018, published 2020).

What was measured:
[1] = test system: patients with PD and constipation; experiment: Phase 2 trial Stage 2: bowel function under daily oral dosing (escalation, fixed dose, wash-out); type: in vivo, human
Method: Following successful screening, all subjects underwent a 14-day run-in period where the degree of constipation was assessed through a validated daily log (Zinsmeister et al. 2013) establishing baseline CSBMs/week. Subjects with an average of <3 CSBMs/week proceeded to dosing.
In Stage 2, 34 patients were evaluated.
The primary efficacy outcome variable was whether or not a subject was a “success” or “failure”. This is an endpoint based on subject diary entries for the “fixed dose” period prior to the endpoint assessment defined as average complete stool frequency increase by 1 or more over baseline, or 3 or more complete spontaneous stools/week. The subject was deemed a “success” if s/he met one or more of the criteria listed above, otherwise the subject was deemed a “failure”. The primary analysis was based on all subjects with a baseline assessment and an assessment at the end of the “fixed-dose” period and was a comparison of the proportion of successes with 0.10 (the null hypothesis corresponding to no treatment effect).

[2] = test system: patients with PD and constipation; experiment: Phase 2 trial Stage 1: adverse events; type: in vivo, human
Excerpt: Tolerability limits included diarrhea or vomiting.

[3] = Stage 1, 10 dosed, unrelated to ENT-01

CC(C)[C@@H](CC[C@@H](C)[C@H]1CC[C@H]2[C@@H]3[C@H](O)C[C@H]4C[C@@H](NCCCNCCCCN)CC[C@]4(C)[C@H]3CC[C@]12C)OS(=O)(=O)O (single isomer, unassigned) [squalamine (ENT-01), squalamine]
improvement of ease of passage ([1]; 3.2 to 3.7): 16% | response rate (CSBM within 24 hours of dosing on at least 2 of 3 days) ([1]; Stage 2, daily oral dosing, 75 mg): 26% | CSBM, weekly average ([1]; Stage 2, fixed dose, mean (SD), n = 34, baseline 1.2 (0.90)): 3.8 (2.4) CSBM/week | Suppository use / rescue medication, weekly average ([1]; Stage 2, fixed dose, mean (SD), n = 34, baseline 1.8 (1.92)): 0.3 (0.67) /week | Consistency (Bristol stool scale 1-7) ([1]; Stage 2, fixed dose, mean (SD), n = 34, baseline 2.7 (1.20), listed as aminosterol): 4.1 | Ease of passage (Ease of evacuation scale 1-7) ([1]; Stage 2, fixed dose, mean (SD), n = 34, baseline 3.2 (0.73), listed as aminosterol): 3.7 | PAQ-SYM ([1]; Stage 2, wash-out, mean (SD), baseline 1.3 (0.45)): 1.1 (0.60) | PAQ-QOL ([1]; Stage 2, wash-out, mean (SD), baseline 1.4 (0.49)): 1.2 (0.63) | Rescue meds ([1]; Stage 2, wash-out, mean (SD), baseline 1.8 (1.92)): 1.0 (1.40) | Consistency ([1]; Stage 2, wash-out, mean (SD), baseline 2.7 (1.20)): 2.8 (1.39) | Ease ([1]; Stage 2, wash-out, mean (SD), baseline 3.2 (0.73)): 3.3 (0.81) | improvement of average CSBM/week ([1]; baseline 1.2 to fixed dose 3.8): 216% | decrease of use of rescue medication ([1]; baseline 1.8/week to fixed dose 0.3): 83% | improvement of SBM ([1]; baseline 2.6 to fixed dose 4.5): 73% | CSBM frequency in the randomized cohort ([1]; group later randomized to placebo (n = 9), fixed dose period (still on drug), baseline 1.6): 3.3 CSBM/week | CSBM frequency in the randomized cohort ([1]; group randomized to treatment (n = 6), fixed dose period, baseline 0.8): 3.2 CSBM/week | CSBM frequency in the randomized cohort ([1]; group randomized to treatment (n = 6), randomized period (4-6 days continued treatment), baseline 0.8): 2.4 CSBM/week | CSBM frequency in the randomized cohort ([1]; group randomized to treatment (n = 6), washout, baseline 0.8): 0.9 CSBM/week | improvement of consistency (Bristol stool scale) ([1]; mean 2.7 to 4.1): 52% | mean dose required for a bowel response (prokinetic dose) ([1]; patients with baseline ≥1 CSBM/week): 120 mg | patients responding ([1]; within effective dose range 75 mg to 250 mg): 85% | AEs confined to the GI tract ([2]; Stage 1): 88% | Diarrhea (common adverse events by dose) ([2]; Stage 1, 25 mg): 1 | Nausea (common adverse events by dose) ([2]; Stage 1, 25 mg): 0 | Vomiting (common adverse events by dose) ([2]; Stage 1, 25 mg): 0 | Diarrhea (common adverse events by dose) ([2]; Stage 1, 50 mg): 1 | Nausea (common adverse events by dose) ([2]; Stage 1, 50 mg): 0 | Vomiting (common adverse events by dose) ([2]; Stage 1, 50 mg): 0 | Diarrhea (common adverse events by dose) ([2]; Stage 1, 75 mg): 1 | Nausea (common adverse events by dose) ([2]; Stage 1, 75 mg): 0 | Vomiting (common adverse events by dose) ([2]; Stage 1, 75 mg): 0 | Diarrhea (common adverse events by dose) ([2]; Stage 1, 100 mg): 0 | Nausea (common adverse events by dose) ([2]; Stage 1, 100 mg): 1 | Vomiting (common adverse events by dose) ([2]; Stage 1, 100 mg): 1 | Diarrhea (common adverse events by dose) ([2]; Stage 1, 125 mg): 1 | Nausea (common adverse events by dose) ([2]; Stage 1, 125 mg): 2 | Vomiting (common adverse events by dose) ([2]; Stage 1, 125 mg): 1 | Diarrhea (common adverse events by dose) ([2]; Stage 1, 150 mg): 1 | Nausea (common adverse events by dose) ([2]; Stage 1, 150 mg): 0 | Vomiting (common adverse events by dose) ([2]; Stage 1, 150 mg): 0 | Diarrhea (common adverse events by dose) ([2]; Stage 1, 175 mg): 1 | Nausea (common adverse events by dose) ([2]; Stage 1, 175 mg): 1 | Vomiting (common adverse events by dose) ([2]; Stage 1, 175 mg): 0 | Diarrhea (common adverse events by dose) ([2]; Stage 1, 200 mg): 0 | Nausea (common adverse events by dose) ([2]; Stage 1, 200 mg): 2 | Vomiting (common adverse events by dose) ([2]; Stage 1, 200 mg): 0 | patients with diarrhea ([2]; Stage 1, 4/10 patients): 40% | patients with nausea ([2]; Stage 1, 4/10 patients): 40% | Abdominal pain, Mild ([2]; Stage 1, 10 dosed): 2 (20) n, % | Abdominal pain, Moderate ([2]; Stage 1, 10 dosed): 3 (30) n, % | Blood in urine, Moderate ([2]; Stage 1, 10 dosed): 0 n, % | Diarrhea, Mild ([2]; Stage 1, 10 dosed): 1 (10) n, % | Diarrhea, Moderate ([2]; Stage 1, 10 dosed): 3 (30) n, % | Diarrhea, Severe ([2]; Stage 1, 10 dosed): 0 n, % | Difficulty falling asleep, Mild ([2]; Stage 1, 10 dosed): 0 n, % | Difficulty falling asleep, Moderate ([2]; Stage 1, 10 dosed): 0 n, % | Dizziness, Mild ([2]; Stage 1, 10 dosed): 0 n, % | Dizziness, Moderate ([2]; Stage 1, 10 dosed): 0 n, % | Eye infection, Mild ([2]; Stage 1, 10 dosed): 0 n, % | Eye infection, Moderate ([2]; Stage 1, 10 dosed): 0 n, % | Flatulence, Mild ([2]; Stage 1, 10 dosed): 2 (20) n, % | Flatulence, Moderate ([2]; Stage 1, 10 dosed): 0 n, % | Headache, Mild ([2]; Stage 1, 10 dosed): 1 (10) n, % | Headache, Moderate ([2]; Stage 1, 10 dosed): 0 n, % | Increased urinary frequency, Mild ([2]; Stage 1, 10 dosed): 0 n, % | Increased urinary frequency, Moderate ([2]; Stage 1, 10 dosed): 0 n, % | Loss of appetite, Moderate ([2]; Stage 1, 10 dosed): 0 n, % | Lower GI bleed, Severe ([2]; Stage 1, 10 dosed): 0 n, % | Nausea, Mild ([2]; Stage 1, 10 dosed): 4 (40) n, % | Nausea, Moderate ([2]; Stage 1, 10 dosed): 0 n, % | Skin lesions-rash, Mild ([2]; Stage 1, 10 dosed): 0 n, % | Skin lesions-rash, Moderate ([2]; Stage 1, 10 dosed): 0 n, % | Urinary retention, Mild ([2]; Stage 1, 10 dosed): 0 n, % | Urinary retention, Moderate ([2]; Stage 1, 10 dosed): 0 n, % | Urinary tract infection, Mild ([2]; Stage 1, 10 dosed): 0 n, % | Urinary tract infection, Moderate ([2]; Stage 1, 10 dosed): 0 n, % | Vomiting, Mild ([2]; Stage 1, 10 dosed): 1 (10) n, % | Vomiting, Moderate ([2]; Stage 1, 10 dosed): 0 n, % | Worsening acid reflux, Mild ([2]; Stage 1, 10 dosed): 0 n, % | Worsening acid reflux, Moderate ([2]; Stage 1, 10 dosed): 0 n, % | Worsening hemorrhoid, Mild ([2]; Stage 1, 10 dosed): 0 n, % | Worsening hemorrhoid, Moderate ([2]; Stage 1, 10 dosed): 0 n, % | Blood in urine, Mild [2, 3]: 1 (10) n, % | Loss of appetite, Mild [2, 3]: 1 (10) n, %
